Measured values taken from patent US20140329797A1, “SUBSTITUTED OXADIAZOLYL PYRIDINONES AND OXADIAZOLYL PYRIDAZINONES AS HIF INHIBITORS” (Bayer Intellectual Property GmbH, priority 2011, published 2014).

tested on: HCT 116 cells transfected with a luciferase reporter under the control of an HIF-responsive sequence; assay: HIF-luciferase assay; format: cell-based; details: Homo sapiens; HCT 116 HIF-luciferase reporter cells, hypoxia chamber (1% O2), 24 h; in some cases means of up to four individual determinations
Description: B-1. HIF-Luciferase Assay
HCT 116 cells were transfected in a stable manner with a plasmid which contained a luciferase reporter under the control of an HIF-responsive sequence. These cells were sown in microtitre plates [20000 cells/cavity in RPMI 1640 medium with 10% foetal calf serum (FCS) and 100 μg/ml of hygromycin]. Incubation was carried out overnight under standard conditions (5% CO2, 21% O2, 37° C., moistened). The following morning the cells were incubated with various concentrations of the test substances (0-10 μmol/l) in a hypoxia chamber (1% O2). After 24 h, Bright Glo reagent (Promega, Wisconsin, USA) was added in accordance with the manufacturer's instructions, and after 5 min the luminescence was measured. Cells which were incubated under normoxia served as background controls.

**Q.** How did the IC50 turn out when `CNc1ccc(Cn2cc(-c3nc(-c4ccc(C(C)(C)C(F)(F)F)cc4)no3)ccc2=O)cn1` [Example 60, 1-{[6-(Methylamino)pyridin-3-yl]methyl}-5-{3-[4-(1,1,1-trifluoro-2-methylpropan-2-yl)phenyl]-1,2,4-oxadiazol-5-yl}pyridin-2(1H)-one] was run?
**A.** 20 nM

**Q.** How did the IC50 turn out when `O=c1ccc(-c2nc(-c3ccc(OC(F)(F)F)cc3)no2)cn1Cc1ccc(NCCCO)nc1` [Example 63, 1-({6-[(3-Hydroxypropyl)amino]pyridin-3-yl}methyl)-5-{3-[4-(trifluoromethoxy)phenyl]-1,2,4-oxadiazol-5-yl}pyridin-2(1H)-one] was run?
**A.** 30 nM

**Q.** With `Cc1ccc(Cn2nc(-c3nc(-c4ccc(OC(F)(F)F)cc4)no3)ccc2=O)cc1` [Example 65, 2-(4-Methylbenzyl)-6-{3-[4-(trifluoromethoxy)phenyl]-1,2,4-oxadiazol-5-yl}pyridazin-3(2H)-one] as the molecule, how does the IC50 read?
**A.** 200 nM

**Q.** How did the IC50 turn out when `N#CC1CCN(c2cccc(Cn3nc(-c4nc(-c5ccc(OC(F)(F)F)cc5)no4)ccc3=O)c2)CC1` [Example 66, 1-(3-{[6-oxo-3-{3-[4-(trifluoromethoxy)phenyl]-1,2,4-oxadiazol-5-yl}pyridazin-1(6H)-yl]methyl}phenyl)piperidine-4-carbonitrile] was run?
**A.** 1.5 nM

**Q.** How did the IC50 turn out when `CNC(=O)c1cccc(Cn2nc(-c3nc(-c4ccc(C(C)(C)C(F)(F)F)cc4)no3)ccc2=O)c1` [Example 70, N-Methyl-3-{[6-oxo-3-{3-[4-(1,1,1-trifluoro-2-methylpropan-2-yl)phenyl]-1,2,4-oxadiazol-5-yl}pyridazin-1(6H)-yl]methyl}benzamide] was run?
**A.** 60 nM

**Q.** For `CC(C)(c1ccc(-c2noc(-c3ccc(=O)n(Cc4cccc(C(=O)NCCCO)c4)n3)n2)cc1)C(F)(F)F` [Example 73, N-(3-Hydroxypropyl)-3-{[6-oxo-3-{3-[4-(1,1,1-trifluoro-2-methylpropan-2-yl)phenyl]-1,2,4-oxadiazol-5-yl}pyridazin-1(6H)-yl]methyl}benzamide], which IC50 is on record?
**A.** 50 nM

**Q.** `O=C(c1cccc(Cn2nc(-c3nc(-c4ccc(OC(F)(F)F)cc4)no3)ccc2=O)c1)N1CCC1` [Example 74, 2-[3-(Azetidin-1-ylcarbonyl)benzyl]-6-{3-[4-(trifluoromethoxy)phenyl]-1,2,4-oxadiazol-5-yl}pyridazin-3(2H)-one] was tested. Which IC50 did it give?
**A.** 10 nM

**Q.** For `O=C(c1cccc(Cn2nc(-c3nc(-c4ccc(OC(F)(F)F)cc4)no3)ccc2=O)c1)N1CC(O)C1` [Example 76, 2-{3-[(3-Hydroxyazetidin-1-yl)carbonyl]benzyl}-6-{3-[4-(trifluoromethoxy)phenyl]-1,2,4-oxadiazol-5-yl}pyridazin-3(2H)-one], which IC50 is on record?
**A.** 20 nM

**Q.** `O=C(c1cccc(Cn2nc(-c3nc(-c4ccc(OC(F)(F)F)cc4)no3)ccc2=O)c1)N1CCCC1` [Example 78, 2-[3-(Pyrrolidin-1-ylcarbonyl)benzyl]-6-{3-[4-(trifluoromethoxy)phenyl]-1,2,4-oxadiazol-5-yl}pyridazin-3(2H)-one] was tested. Which IC50 did it give?
**A.** 5 nM

**Q.** With `O=C(c1cccc(Cn2nc(-c3nc(-c4ccc(OC(F)(F)F)cc4)no3)ccc2=O)c1)N1CCCO1` [Example 80, 2-[3-(1,2-Oxazolidin-2-ylcarbonyl)benzyl]-6-{3-[4-(trifluoromethoxy)phenyl]-1,2,4-oxadiazol-5-yl}pyridazin-3(2H)-one] as the molecule, how does the IC50 read?
**A.** 5 nM

**Q.** `O=C(c1cccc(Cn2nc(-c3nc(-c4ccc(OC(F)(F)F)cc4)no3)ccc2=O)c1)N1CCC(O)CC1` [Example 82, 2-{3-[(4-Hydroxypiperidin-1-yl)carbonyl]benzyl}-6-{3-[4-(trifluoromethoxy)phenyl]-1,2,4-oxadiazol-5-yl}pyridazin-3(2H)-one] was tested. Which IC50 did it give?
**A.** 15 nM

**Q.** For `O=C(c1cccc(Cn2nc(-c3nc(-c4ccc(OC(F)(F)F)cc4)no3)ccc2=O)c1)N1CCOCC1` [Example 84, 2-[3-(Morpholin-4-ylcarbonyl)benzyl]-6-{3-[4-(trifluoromethoxy)phenyl]-1,2,4-oxadiazol-5-yl}pyridazin-3(2H)-one], which IC50 is on record?
**A.** 20 nM

**Q.** How did the IC50 turn out when `CN1CCN(C(=O)c2cccc(Cn3nc(-c4nc(-c5ccc(C(C)(C)C(F)(F)F)cc5)no4)ccc3=O)c2)CC1` [Example 86, 2-{3-[(4-Methylpiperazin-1-yl)carbonyl]benzyl}-6-{3-[4-(1,1,1-trifluoro-2-methylpropan-2-yl)phenyl]-1,2,4-oxadiazol-5-yl}pyridazin-3(2H)-one] was run?
**A.** 40 nM

**Q.** How did the IC50 turn out when `O=C(c1cccc(Cn2nc(-c3nc(-c4ccc(OC(F)(F)F)cc4)no3)ccc2=O)c1)N1CCN(C2CC2)CC1` [Example 87, 2-{3-[(4-Cyclopropylpiperazin-1-yl)carbonyl]benzyl}-6-{3-[4-(trifluoromethoxy)phenyl]-1,2,4-oxadiazol-5-yl}pyridazin-3(2H)-one] was run?
**A.** 5 nM

**Q.** With `CC(=O)OC1(c2cccc(Cn3nc(-c4nc(-c5ccc(OC(F)(F)F)cc5)no4)ccc3=O)c2)CC1` [Example 89, 1-(3-{[6-oxo-3-{3-[4-(trifluoromethoxy)phenyl]-1,2,4-oxadiazol-5-yl}pyridazin-1(6H)-yl]methyl}phenyl)cyclopropyl acetate] as the molecule, how does the IC50 read?
**A.** 5 nM

**Q.** With `CC(C)(O)Cc1cccc(Cn2nc(-c3nc(-c4ccc(OC(F)(F)F)cc4)no3)ccc2=O)c1` [Example 90, 2-[3-(2-Hydroxy-2-methylpropyl)benzyl]-6-{3-[4-(trifluoromethoxy)phenyl]-1,2,4-oxadiazol-5-yl}pyridazin-3(2H)-one] as the molecule, how does the IC50 read?
**A.** 6 nM

**Q.** `CC(C)(O)Cc1cccc(Cn2nc(-c3nc(-c4ccc(C(C)(C)C(F)(F)F)cc4)no3)ccc2=O)c1` [Example 91, 2-[3-(2-Hydroxy-2-methylpropyl)benzyl]-6-{3-[4-(1,1,1-trifluoro-2-methylpropan-2-yl)phenyl]-1,2,4-oxadiazol-5-yl}pyridazin-3(2H)-one] was tested. Which IC50 did it give?
**A.** 40 nM

**Q.** Which IC50 does the source give for `O=c1ccc(-c2nc(-c3ccc(OC(F)(F)F)cc3)no2)nn1Cc1cccc(C2(CO)CC2)c1` [Example 92, 2-{3-[1-(Hydroxymethyl)cyclopropyl]benzyl}-6-{3-[4-(trifluoromethoxy)phenyl]-1,2,4-oxadiazol-5-yl}pyridazin-3(2H)-one] here?
**A.** 10 nM

**Q.** `CC(C)(c1ccc(-c2noc(-c3ccc(=O)n(Cc4cccc(C5(CO)CC5)c4)n3)n2)cc1)C(F)(F)F` [Example 93, 2-{3-[1-(Hydroxymethyl)cyclopropyl]benzyl}-6-{3-[4-(1,1,1-trifluoro-2-methylpropan-2-yl)phenyl]-1,2,4-oxadiazol-5-yl}pyridazin-3(2H)-one] was tested. Which IC50 did it give?
**A.** 25 nM

**Q.** For `N#CC1CCN(c2cc(Cn3nc(-c4nc(-c5ccc(OC(F)(F)F)cc5)no4)ccc3=O)ccn2)CC1` [Example 94, 1-(4-{[6-oxo-3-{3-[4-(trifluoromethoxy)phenyl]-1,2,4-oxadiazol-5-yl}pyridazin-1(6H)-yl]methyl}pyridin-2-yl)piperidine-4-carbonitrile], which IC50 is on record?
**A.** 20 nM

**Q.** With `CC(C)(c1ccc(-c2noc(-c3ccc(=O)n(Cc4ccnc(N5CCC(C#N)CC5)c4)n3)n2)cc1)C(F)(F)F` [Example 95, 1-(4-{[6-oxo-3-{3-[4-(1,1,1-trifluoro-2-methylpropan-2-yl)phenyl]-1,2,4-oxadiazol-5-yl}pyridazin-1(6H)-yl]methyl}pyridin-2-yl)piperidine-4-carbonitrile] as the molecule, how does the IC50 read?
**A.** 40 nM

**Q.** For `O=c1ccc(-c2nc(-c3ccc(OC(F)(F)F)cc3)no2)nn1Cc1ccnc(N2CCN(C3CC3)CC2)c1` [Example 96, 2-{[2-(4-Cyclopropylpiperazin-1-yl)pyridin-4-yl]methyl}-6-{3-[4-(trifluoromethoxy)phenyl]-1,2,4-oxadiazol-5-yl}pyridazin-3(2H)-one], which IC50 is on record?
**A.** 1.5 nM

**Q.** For `CC(C)(c1ccc(-c2noc(-c3ccc(=O)n(Cc4ccnc(N5CCN(C6CC6)CC5)c4)n3)n2)cc1)C(F)(F)F` [Example 97, 2-{[2-(4-Cyclopropylpiperazin-1-yl)pyridin-4-yl]methyl}-6-{3-[4-(1,1,1-trifluoro-2-methylpropan-2-yl)phenyl]-1,2,4-oxadiazol-5-yl}pyridazin-3(2H)-one], which IC50 is on record?
**A.** 3 nM

**Q.** Which IC50 does the source give for `CNc1ccc(Cn2nc(-c3nc(-c4ccc(OC(F)(F)F)cc4)no3)ccc2=O)cn1` [Example 100, 2-{[6-(Methylamino)pyridin-3-yl]methyl}-6-{3-[4-(trifluoromethoxy)phenyl]-1,2,4-oxadiazol-5-yl}pyridazin-3(2H)-one] here?
**A.** 6 nM

**Q.** With `CNc1ccc(Cn2nc(-c3nc(-c4ccc(C(C)(C)C(F)(F)F)cc4)no3)ccc2=O)cn1` [Example 101, 2-{[6-(Methylamino)pyridin-3-yl]methyl}-6-{3-[4-(1,1,1-trifluoro-2-methylpropan-2-yl)phenyl]-1,2,4-oxadiazol-5-yl}pyridazin-3(2H)-one] as the molecule, how does the IC50 read?
**A.** 15 nM
